We go through 15 molecules from PubChem BioAssay (NCI).

Test systems include ACHN renal; HOP-62 NSCLC; COLO 205 colon; HT29 colon; CAKI-1 renal; DU-145 prostate; SR leukemia; RPMI-8226 leukemia; MOLT-4 leukemia; SF-539 CNS; SNB-75 CNS; HL-60(TB) leukemia; NCI-H226 lung; UACC-257 melanoma; KM12 colon; RXF 393 renal.
Holding throughout (assay): inhibition of tumour cell growth, NCI panel, 48 h

Several values for one entry are separate records, joined by “and”; a condition that tells them apart may be missing. Equal entries are not always repeated.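 Five concentrations, 48 hours, 96-well plates. GI50 is the concentration that inhibits growth by half. TGI: concentration producing complete growth inhibition.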

For the molecule `O=C(Nc1ccc(S(=O)(=O)Nc2ncccn2)cc1)c1c2ccccc2nc2ccccc12`, the TGI with ACHN renal, in the test with HOP-62 NSCLC, in the test with COLO 205 colon, with HT29 colon, in the test with CAKI-1 renal and in the test with DU-145 prostate was over 100 µM each time. The TGI in the test on SR leukemia, with RPMI-8226 leukemia, in the test with MOLT-4 leukemia, in the test on SF-539 CNS, in the test on SNB-75 CNS and in the test on HL-60(TB) leukemia was over 100 µM each time. The TGI with NCI-H226 lung, in the test on UACC-257 melanoma and in the test with KM12 colon was over 100 µM throughout.
Take `COC(=O)CCC1(O)C=CC(=O)C=C1`: the TGI was over 100 µM in the test with ACHN renal; over 100 µM in the test with HOP-62 NSCLC; 40.2 µM in the test on COLO 205 colon; over 100 µM in the test with HT29 colon; 33.1 µM in the test with CAKI-1 renal; over 100 µM in the test with DU-145 prostate. Also, the TGI in the test on SR leukemia was over 100 µM; with RPMI-8226 leukemia it was over 100 µM; in the test with MOLT-4 leukemia it was over 100 µM; in the test with SF-539 CNS, 76.4 µM; in the test with SNB-75 CNS, over 100 µM; in the test on RXF 393 renal, 61.5 µM. Further, the values for the TGI in the test on NCI-H226 lung, in the test on UACC-257 melanoma and in the test with KM12 colon were over 100 µM, 66.3 µM and over 100 µM, respectively.
Turning to `CCOC(=O)NC(=S)NC(C)c1ccccc1` (stereo not drawn), the TGI in the test on ACHN renal, with HOP-62 NSCLC, in the test on COLO 205 colon, in the test with HT29 colon, in the test with CAKI-1 renal and with DU-145 prostate was over 100 µM each time. In addition, the TGI in the test with SR leukemia, in the test on RPMI-8226 leukemia, in the test on MOLT-4 leukemia, in the test on SNB-75 CNS, with RXF 393 renal and in the test on NCI-H226 lung was over 100 µM in each case. In addition, the TGI in the test on UACC-257 melanoma and with KM12 colon was over 100 µM each time.
`N#Cc1c(N2CCOCC2)ncn(-c2ccc(Cl)cc2)c1=O`: the TGI in the test with ACHN renal, with HOP-62 NSCLC, in the test on COLO 205 colon, with CAKI-1 renal, in the test on DU-145 prostate and in the test with SR leukemia was over 100 µM in each case. Moreover, the TGI with RPMI-8226 leukemia, in the test on MOLT-4 leukemia, in the test with SF-539 CNS, in the test on SNB-75 CNS, with HL-60(TB) leukemia and in the test on NCI-H226 lung was over 100 µM in each case. Moreover, the TGI in the test with UACC-257 melanoma and in the test with KM12 colon was over 100 µM in each case.
With `C/C(=N\NC(=S)Nc1ccc(Cl)cc1)c1nc2ncccc2[nH]1`, the TGI in the test with ACHN renal was 15.8 µM; with HOP-62 NSCLC it was 18.1 µM; in the test on COLO 205 colon it was 17.5 µM; in the test with HT29 colon it was 14.7 µM; in the test with CAKI-1 renal it was 33.2 µM; in the test with DU-145 prostate it was 14.1 µM. Also, the TGI in the test with SR leukemia is over 100 µM; in the test with RPMI-8226 leukemia it was over 100 µM; in the test on MOLT-4 leukemia, 22.2 µM; in the test on SF-539 CNS it was 8.27 µM; with SNB-75 CNS, 25.4 µM; in the test on HL-60(TB) leukemia it was over 100 µM. The TGI in the test on NCI-H226 lung was found to be 8.25 µM; in the test with UACC-257 melanoma it was 7.75 µM; in the test on KM12 colon, 16.4 µM.
With `O=C(O)CO/N=C1/C(c2c(O)[nH]c3ccccc23)=Nc2ccccc21`, the TGI with ACHN renal, with HOP-62 NSCLC, in the test with COLO 205 colon, in the test with HT29 colon, with CAKI-1 renal and in the test on DU-145 prostate was over 100 µM throughout. The TGI in the test with SR leukemia is over 100 µM; in the test on RPMI-8226 leukemia, over 100 µM; in the test on MOLT-4 leukemia it was over 100 µM; with SF-539 CNS, over 100 µM; in the test with SNB-75 CNS it was 74.4 µM; with HL-60(TB) leukemia it was over 100 µM. Moreover, the values for the TGI in the test on RXF 393 renal, in the test with UACC-257 melanoma and in the test with KM12 colon were 52.7 µM, over 100 µM and over 100 µM, respectively.
On to `O=C1/C(=C/c2ccc(Cl)cc2)Sc2scc(-c3cccc([N+](=O)[O-])c3)[n+]21`, for which the TGI is 6.27 µM in the test on ACHN renal; over 69.7 µM in the test on HOP-62 NSCLC; 4.48 µM with COLO 205 colon; over 45 µM in the test on HT29 colon; 6.85 µM with CAKI-1 renal; over 33.3 µM with DU-145 prostate. Moreover, the TGI in the test with SR leukemia is 2.42 µM; in the test on RPMI-8226 leukemia, 3.99 µM; in the test with MOLT-4 leukemia, 3.9 µM; in the test on SF-539 CNS it was 8.11 µM; in the test on SNB-75 CNS it was 5.49 µM; in the test with RXF 393 renal, 7.97 µM. The TGI in the test on NCI-H226 lung was over 100 µM; in the test on UACC-257 melanoma, 10.9 µM; in the test on KM12 colon, 13.1 µM.
For the molecule `CC(=O)Nc1nnc(S(=O)(=O)NC(=S)Nc2ccc(Cl)cc2)s1`, the TGI in the test with ACHN renal, in the test on HOP-62 NSCLC, in the test with COLO 205 colon, with HT29 colon, in the test on CAKI-1 renal and with DU-145 prostate was over 100 µM each time. In addition, the TGI with SR leukemia, in the test with RPMI-8226 leukemia, with MOLT-4 leukemia, with SF-539 CNS, in the test with SNB-75 CNS and with HL-60(TB) leukemia was over 100 µM each time. The TGI with RXF 393 renal, in the test with UACC-257 melanoma and with KM12 colon was over 100 µM each time.
With `NCCCCCNOCCCN`, the TGI in the test on ACHN renal, in the test with HOP-62 NSCLC, with COLO 205 colon, in the test with HT29 colon, in the test on DU-145 prostate and in the test on SR leukemia was over 100 µM each time. Moreover, the TGI in the test with RPMI-8226 leukemia, in the test on MOLT-4 leukemia, with SF-539 CNS, in the test on SNB-75 CNS, in the test with HL-60(TB) leukemia and in the test with NCI-H226 lung was over 100 µM each time. Moreover, the TGI in the test on UACC-257 melanoma and in the test on KM12 colon was over 100 µM throughout.
For the molecule `CNc1ncnc2c1cnn2Cc1cn(CCCCO)nn1`, the TGI in the test on ACHN renal, in the test with HOP-62 NSCLC, in the test on COLO 205 colon, with HT29 colon, with CAKI-1 renal and with DU-145 prostate was over 100 µM throughout. For the same molecule, the TGI in the test with SR leukemia, in the test with RPMI-8226 leukemia, with MOLT-4 leukemia, with SF-539 CNS, in the test on RXF 393 renal and with NCI-H226 lung was over 100 µM each time. Moreover, the TGI in the test with UACC-257 melanoma and with KM12 colon was over 100 µM each time.
Take `C=CCC1C2CCC(O[Si](C(C)C)(C(C)C)C(C)C)(C(C(=O)OC)C2)C1O` (stereo not drawn): the TGI with ACHN renal, with HOP-62 NSCLC, in the test on COLO 205 colon, in the test on HT29 colon, with CAKI-1 renal and in the test with DU-145 prostate was over 100 µM each time. Further, the TGI is over 100 µM in the test on SR leukemia; over 100 µM in the test with RPMI-8226 leukemia; over 100 µM in the test with MOLT-4 leukemia; over 100 µM with SF-539 CNS; over 100 µM in the test on SNB-75 CNS; 36.7 µM in the test on HL-60(TB) leukemia. Also, the TGI in the test on NCI-H226 lung, in the test on UACC-257 melanoma and with KM12 colon was over 100 µM each time.
For the molecule `CN(C)C(=O)Oc1ccc(C(=S)Nc2ccccc2)cc1Br`, the TGI with ACHN renal is over 100 µM; in the test on HOP-62 NSCLC it was over 100 µM; with COLO 205 colon, 55.3 µM; with HT29 colon, 65.1 µM; in the test on CAKI-1 renal, over 100 µM; with DU-145 prostate, over 100 µM. In addition, the TGI was 63.3 µM with SR leukemia; 73.9 µM with RPMI-8226 leukemia; 38.1 µM with MOLT-4 leukemia; over 100 µM in the test with SF-539 CNS; 39.6 µM in the test on HL-60(TB) leukemia; 74 µM in the test with UACC-257 melanoma. This molecule also had a TGI with KM12 colon of 51.6 µM.
In the case of `C#CC(O)Cc1ccc(OC)c2occc12` (stereo not drawn), the TGI in the test with ACHN renal, in the test on HOP-62 NSCLC, in the test on COLO 205 colon, with HT29 colon, in the test on CAKI-1 renal and in the test on DU-145 prostate was over 100 µM each time. Besides, the TGI with SR leukemia, in the test on RPMI-8226 leukemia, in the test on SF-539 CNS, with SNB-75 CNS, with RXF 393 renal and in the test on NCI-H226 lung was over 100 µM each time. Further, the TGI in the test on UACC-257 melanoma and with KM12 colon was over 100 µM in each case.
As to `Oc1ccccc1-n1nc2ccc3nonc3c2n1`, the TGI in the test with ACHN renal, in the test with HOP-62 NSCLC, with COLO 205 colon, with HT29 colon, with CAKI-1 renal and in the test on DU-145 prostate was over 100 µM each time. For the same molecule, the TGI in the test with SR leukemia, with RPMI-8226 leukemia, in the test on MOLT-4 leukemia, with SF-539 CNS, with SNB-75 CNS and in the test on HL-60(TB) leukemia was over 100 µM in each case. The TGI in the test with NCI-H226 lung, in the test on UACC-257 melanoma and with KM12 colon was over 100 µM each time.
As to `CC(Nc1n[nH]c(=O)c2c1nnn2Cc1ccccc1)c1ccccc1` (stereo not drawn), the TGI in the test on ACHN renal is over 100 µM; with HOP-62 NSCLC, > 100 µM and 86 µM; with COLO 205 colon it was over 100 µM; in the test with HT29 colon, 24.7 µM; in the test on CAKI-1 renal it was > 100 µM and 52.9 µM; with DU-145 prostate, over 100 µM. Moreover, the TGI in the test on SR leukemia, with RPMI-8226 leukemia, with MOLT-4 leukemia, in the test with HL-60(TB) leukemia, in the test with UACC-257 melanoma and in the test on KM12 colon was over 100 µM throughout. Moreover, the GI50 was > 100 µM and 21.7 µM in the test with HOP-62 NSCLC; > 100 µM and 48 µM with SR leukemia; 37.4 µM and > 100 µM in the test with HL-60(TB) leukemia.
